# Assay results as given in patent US6416791B1, “Alimentary integrator” (priority 1999, dated 2002).
# Experiments:
# [1] = tested on: patients (symptoms of the disease); assay: comparison testing of symptom changes in patients treated with potassium citrate or potassium tartarate; type: in vivo, human; details: FIGS. 6 and 7; 4 patients per compound; base condition, 10th and 20th day
# Excerpt: The substitution of one or more components of the compound causes an inefficacy of the relevant different compound.
# The graph of FIG. 6 is relevant to the changes in symptoms among 4 patients treated using potassium citrate, while the graph of FIG. 7 is relevant to the changes in symptoms among 4 patients treated using potassium tartarate. Similarly to the graph of FIG. 5, on abscissa each graph presents the different symptoms; from left to right-thoracic pain, abdominal pain, osteomuscular pain-dyspnea, cough, nausea, emesis, ascites, temperature, asthenia. The columns are composed by three secondary columns which refer to the different time of recording of the data, with 10 days interval; from left to right base condition (at the beginning of the treatment), at 10th day and at 20th day. Also in these cases the rate utilized as ordinate in the graph is relevant to the intensity (amount) of the symptoms.
# [2] = toxicity at the stated dosages; details: given the stated dosages; long-term use
# [3] = water solubility of the salt; type: physicochemical
# [4] = stability of the salt (oxidizability); type: physicochemical; details: due to its easy oxidizability
# [5] = tested on: patients suffering from different types of neoplasia in advanced phase; assay: testing of potassium ribose ascorbate, given three times a day, in 30 terminally-ill neoplasia patients for more than ten years; type: in vivo, human
# Experimental: In FIGS. 2-5 and 8-11 are shown the results of a testing carried out for more than ten years. The testing was carried out on a sample of 30 patients suffering from different types of neoplasia in advanced phase (terminally-ill patients).
# The patients were given potassium ribose ascorbate three times a day.
# The integrator of the present invention not only allows a good survival percentage but also improves the symptoms of the diseases. In FIG. 5 is a graph showing the changes in ten symptoms among the patients above mentioned. On abscissa the graph presents the different symptoms; from left to right thoracic pain, abdominal pain, osteomuscular pain, dyspnea, cough, nausea, emesis, ascites, temperature, asthenia. Every column is composed by five secondary columns which refer to the different time of recording of the data, with 15 days interval, from left to right: base condition (at the beginning of the treatment), at 15th day, at 30th day, at 45th and at 60th day The rate utilized as ordinate in the graph is relevant to the intensity (amount) of the symptoms. This rate is a normalized value among the different rates utilized for measuring the ten symptoms (i.e. degrees for the temperature, an objective value for pain, cough, etc). A higher rate means a higher means intensity of the symptom.
# In particular, FIG.8 is relevant to the mean changes in the hemoglobin rate, in the graph, the abscissa is divided in steps corresponding to 15 days intervals, while the ordinate is expressed in g/dl. FIG. 9 is relevant to the mean changes in the white cells number; in the graph, the abscissa is divided in steps corresponding to 15 days intervals, while the ordinate is expressed in number of cells. FIG. 10 is relevant to the mean changes in the red cells number; in the graph, the abscissa is divided in steps corresponding to 15 days intervals, while the ordinate is expressed in thousands of cells. FIG. 11 is relevant to the mean changes in the erythrosedimentation rate at first hour; in the graph, the abscissa is divided in steps corresponding to 15 days intervals, while the ordinate is expressed in erythrosedimentation rate.
compound,measurement,setting,value
O=C([O-])CC(O)(CC(=O)[O-])C(=O)[O-].[K+].[K+].[K+] [potassium citrate],change in intensity of ten symptoms,[1],substantially increasing symptoms rate
O=C([O-])C(O)C(O)C(=O)[O-].[K+].[K+] (stereo not shown) [potassium tartarate],change in intensity of ten symptoms,[1],substantially increasing symptoms rate
potassium ribosate,toxicity,[2],does not produce any toxicity
same,solubility in water,[3],easily water-soluble
same,stability,[4],somewhat unstable
potassium ribose ascorbate,survival percentage after five years,"[5]; FIG. 2, terminally-ill patients, by location of neoplasia: brain, breast, lung, ovary, prostate, skin",very high
same,survival percentage after ten years,"[5]; FIG. 3, terminally-ill patients, by location of neoplasia: brain, breast, lung, ovary, prostate, skin",very high
same,"change in intensity of ten symptoms (thoracic, abdominal, osteomuscular pain, dyspnea, cough, nausea, emesis, ascites, temperature, asthenia)","[5]; FIG. 5, normalized rate, base condition, 15th, 30th, 45th and 60th day",all symptoms decreased
same,mean changes in the hemoglobin rate,"[5]; FIG. 8, 15 days intervals, ordinate in g/dl",increasing rates
same,mean changes in the white cells number,"[5]; FIG. 9, 15 days intervals, ordinate in number of cells",increasing rates
same,mean changes in the red cells number,"[5]; FIG. 10, 15 days intervals, ordinate in thousands of cells",increasing rates
same,mean changes in the erythrosedimentation rate at first hour,"[5]; FIG. 11, 15 days intervals",decreasing rate
same,stability,[4],somewhat unstable
